For assay [1], the system named is Trypanosoma cruzi. The assay can be described thus: Antitrypanosomal activity against Trypanosoma cruzi trypomastigotes. The assay is classed as functional.
In assay [2] the test system is Trypanosoma cruzi. The assay can be described thus: Antitrypanosomal activity against Trypanosoma cruzi intracellular amastigotes. The assay is classed as functional, cell-based.
A short description of assay [3]: Cytotoxicity against mammalian NCTC cells. The assay is classed as functional. To be noted: Mammalia.
Setting [4] is: Trypanosoma cruzi, read-out: IC50.

This passage reports IC50 and CC50 results from ChEMBL document CHEMBL4033613, “Rearranged Terpenoids from the Marine Sponge Darwinella cf. oxeata and Its Predator, the Nudibranch Felimida grahami” (J Nat Prod, 2017).

As for `C[C@@H](C(=O)O)c1c([C@@]2(C)CCCC(C)(C)C2)ccc2c1CN(C)C2=O`, the IC50 entry in the assay with Trypanosoma cruzi [1] and in the assay on Trypanosoma cruzi [2] was “Not Active” throughout.

Take `C[C@@H](C(=O)O)c1c([C@@]2(C)CCCC(C)(C)C2)ccc2c1CN(CC(=O)O)C2=O`: the IC50 result in the assay on Trypanosoma cruzi [1] and with Trypanosoma cruzi [2] was “Not Active” throughout.

As to `COC(=O)[C@H](C)c1c([C@@]2(C)CCCC(C)(C)C2)ccc2c1C(=O)OC2`, the half-maximal inhibitory concentration (IC50) with Trypanosoma cruzi [1] (setting [4]) amounted to 29 µM; in the assay on Trypanosoma cruzi [2] (setting [4]), 20 µM. This molecule also gave a CC50 in assay [3] of 54 µM.
